The values below come from patent US9937165B2, “Pharmacological chaperones for treating obesity” (Amicus Therapeutics, Inc., priority 2005, dated 2018).

Usually IC50 stands for the concentration that inhibits the measured activity by half.

Square brackets hold non-standard residues; d marks the D form. d2Nal = N[C@H](Cc1ccc2ccccc2c1)C(=O)O; Nle = CCCC[C@H](N)C(=O)O

One data set addresses T1, hMC4R mutant S58C (Homo sapiens, UniProt P32245, S58C).
T1 construct: expressed in transfected cells; host or cells: HEK 293 cells, transient transfection
The data set can be described thus: Pharmacological chaperone assay, cell surface expression by FACS, mutant S58C. Type of data set: cell-based. How it is done: (§1) HEK 293 cells were transiently transfected with wild-type (WT) or the following hMC4R mutants double tagged with 3HA and Venus (Enhanced Yellow Green Fluorescent Protein; EYFP): S58C; N62S; R165W; R165Q, and P299H.
(§2) FACS analysis was performed after fluorescently labeling cells with primary anti-HA.11 antibody (mouse; 1:1000 dilution) and the secondary antibody coupled to Alexa 647 (goat anti-mouse; 1:1000 dilution) dilution. Live cells (propidium iodide negative) were sorted into the following two relevant populations: • P4: Total YFP positive cells (representative of total MC4R expression) • P5: Percent of cells positive for both YFP and Alexa 647 (Alexa and YFP positive cells)/(YFP positive cells+Alexa and YFP positive cells) (representative of cell surface expression)
(§3) Briefly, cells harboring each of the above-referenced MC4R mutants (transfected as described in Example 3) were cultured with each of the antagonist compounds at concentrations of 1.0 μM and 10 μM for 12 h and evaluated for cell surface expression of MC4R using fluorescent activated cell sorting analysis as described above. Cell surface expression levels are compared between treatment and basal conditions. Percent Gain is determined according to the following: [Gain=[(% of surface expression (with treatment)−% of surface expression (w/o treatment))/% of surface expression (w/o treatment)]*100.
In general terms: A flow cytometer gives signals particle by particle.

The target in a further data set is T2, hMC4R mutant R165Q (Homo sapiens, UniProt P32245, R165Q).
T2 construct: expressed in transfected cells; host or cells: HEK 293 cells, transient transfection
Description: Pharmacological chaperone assay, cell surface expression by FACS, mutant R165Q. Type of data set: cell-based. To be noted: 12 h. How it is done: as §1, §2, §3

The target of a further data set is T3, hMC4R mutant N62S (Homo sapiens, UniProt P32245, N62S).
T3 construct: expressed in transfected cells; host or cells: HEK 293 cells, transient transfection
Description: Pharmacological chaperone assay, cell surface expression by FACS, mutant N62S. To be noted: 12 h. Type of data set: cell-based. How it is done: as §1, §2, §3

Another data set addresses T4, hMC4R mutant P299H (Homo sapiens, UniProt P32245, P299H).
T4 construct: expressed in transfected cells; host or cells: HEK 293 cells, transient transfection
Description: Pharmacological chaperone assay, cell surface expression by FACS, mutant P299H. Type of data set: cell-based. The settings on record: 12 h. As to the method: as §1, §2, §3

For a further data set, the target named is T5, hMC4R mutant R165W (Homo sapiens, UniProt P32245, R165W).
T5 construct: expressed in transfected cells; host or cells: HEK 293 cells, transient transfection
The data set can be described thus: Pharmacological chaperone assay, cell surface expression by FACS, mutant R165W. Type of data set: cell-based. As to the method:
as §1, §2, §3

The next data set concerns the target MC4R over MC3R (Homo sapiens, UniProt P32245). To be noted: cited from earlier work.
The next data set addresses MC4R (Homo sapiens, UniProt P32245). To be noted: MC4R antagonist; cited from earlier work.
Data set [1] relates to WT and mutant hMC4R (S58C; N62S; R165W; R165Q; P299H) in HEK 293 cells. The data set can be described thus: Chemical chaperone assay, MC4R cell surface expression by FACS. Type of data set: cell-based, human. To be noted: 1% DMSO, 12 hours. How it is done: as §1
WT and transiently transfected cells were incubated in the presence or absence of 1% DMSO for 12 hours prior to evaluation of MC4R cells surface expression.
as §2

Data set [2] has as its target MC4R as compared to the MC5R (Homo sapiens, UniProt P32245). To be noted: cited from earlier work.
Data set [3] concerns the target MC4R as compared to the MC3R (Homo sapiens, UniProt P32245). The settings on record: cited from earlier work.
For data set [4] the following is noted: in vivo; cited from earlier work.

T5 sequence (P32245 whole entry R165W): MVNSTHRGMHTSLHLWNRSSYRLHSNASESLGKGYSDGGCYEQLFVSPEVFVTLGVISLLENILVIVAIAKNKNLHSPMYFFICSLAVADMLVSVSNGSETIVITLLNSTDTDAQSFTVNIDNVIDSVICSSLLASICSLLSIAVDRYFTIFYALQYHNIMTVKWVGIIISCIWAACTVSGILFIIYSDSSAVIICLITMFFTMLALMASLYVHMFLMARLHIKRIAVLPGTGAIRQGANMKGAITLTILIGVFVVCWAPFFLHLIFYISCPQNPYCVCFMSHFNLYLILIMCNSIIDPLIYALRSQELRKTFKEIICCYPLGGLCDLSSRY
T2 sequence (P32245 whole entry R165Q): as the sequence (P32245 whole entry R165W) above, with W165Q counted along it
T4 sequence (P32245 whole entry P299H): as the sequence (P32245 whole entry R165W) above, with W165R, P299H counted along it
T1 sequence (P32245 whole entry S58C): as the sequence (P32245 whole entry R165W) above, with S58C, W165R counted along it
T3 sequence (P32245 whole entry N62S): as the sequence (P32245 whole entry R165W) above, with N62S, W165R counted along it
MC4R over MC3R, sequence (P32245 whole entry): as the sequence (P32245 whole entry R165W) above, with W165R counted along it
MC4R, sequence (P32245 whole entry): as the sequence (P32245 whole entry R165W) above, with W165R counted along it
MC4R as compared to the MC5R, sequence (P32245 whole entry): as the sequence (P32245 whole entry R165W) above, with W165R counted along it
MC4R as compared to the MC3R, sequence (P32245 whole entry): as the sequence (P32245 whole entry R165W) above, with W165R counted along it

Consider `CC(CN1CCN(CC(c2ccc(F)cc2)N2CCN(C)CC2)CC1)C(=O)c1ccccc1` (stereo not drawn) [Compound 3], for which the “% Gain in cell surface expression” value at hMC4R mutant S58C (1 μM, 12 h) came to 77.5%; on hMC4R mutant S58C (10 μM, 12 h), 130%; on hMC4R mutant R165Q (1 μM), 300%; at hMC4R mutant R165Q (10 μM) it was 508%; on hMC4R mutant N62S (1 μM), 25%; on hMC4R mutant N62S (10 μM), 343.75%. Moreover, the “% Gain in cell surface expression” value at hMC4R mutant N62S (10 μM, listed as compound depicted in FIG. 5) is listed as “more potent”; on hMC4R mutant P299H (1 μM), 27.78%; on hMC4R mutant P299H (10 μM), 77.78%; on hMC4R mutant P299H (10 μM, listed as compound shown in FIG. 5), “only a small effect”; at hMC4R mutant R165W (1 μM, 12 h), 467%; on hMC4R mutant R165W (10 μM, 12 h), 675%.

Consider `COc1ccc(Cl)cc1Nc1nc(-c2sc(NC(=O)c3ccccc3)nc2C)cs1` [Compound 5], for which the “% Gain in cell surface expression” value worked out at 31.25% at hMC4R mutant S58C (concentration not given) and 28.95% on hMC4R mutant R165W (concentration not given).

As for “Ac-Nle-c[Asp-Che-DNal(2′)-Arg-Trp-Lys-NH(2) [SHU9119 analogue, cyclic MC4R antagonist of Grieco et al., J Med Chem 2002]”, at MC4R over MC3R, the “selectivity over MC3R” value is 100 fold. Also, the IC50 on MC4R was 0.48 nM.

For the molecule `C[S+](C)[O-]` [DMSO], in [1], the “enhancement of MC4R cell surface expression” value was “No significant enhancement”.

In the case of “Ac-Nle-Gly-Lys-D-Nal(2)-Arg-Trp-Gly-NH(2) (Ac-[Nle]GK[d2Nal]RWG-NH2; SMILES CCCC[C@H](NC(C)=O)C(=O)NCC(=O)N[C@@H](CCCCN)C(=O)N[C@H](Cc1ccc2ccccc2c1)C(=O)N[C@@H](CCCNC(=N)N)C(=O)N[C@@H](Cc1c[nH]c2ccccc12)C(=O)NCC(N)=O)”, the “selectivity for the MC4R as compared to the MC5R” value in data set [2] is 109 fold. In addition, the “selectivity for the MC4R as compared to the MC3R” value in data set [3] was 34 fold.

Take `O=C(N[C@H](Cc1ccc(Cl)cc1)C(=O)N1CCC(Cn2cncn2)(C2CCCCC2)CC1)[C@H]1Cc2ccccc2CN1` [Compound 1, THIQ]: in [4], the “PK %F” value is given as “%F 14”, the “PK Cl” value is “Cl 84 mLmin/kg”, the “PK Vd” value is on record as “Vd 3.6 L/kg” and the “PK t½” value was “t½ 0.6 h”.

Consider “Ac-Nle-Gly-Lys-D-Phe-Arg-Trp-Gly-NH(2) (Ac-[Nle]GK[dF]RWG-NH2; SMILES CCCC[C@H](NC(C)=O)C(=O)NCC(=O)N[C@@H](CCCCN)C(=O)N[C@H](Cc1ccccc1)C(=O)N[C@@H](CCCNC(=N)N)C(=O)N[C@@H](Cc1c[nH]c2ccccc12)C(=O)NCC(N)=O)”, for which the “selectivity for the MC4R as compared to the MC5R” value in data set [2] was 110 fold. Also, the “selectivity for the MC4R as compared to the MC3R” value in [3] is 90 fold.

For the molecule “Ac-Nle-c[Asp-Cpe-DNal(2′)-Arg-Trp-Lys-NH(2) [SHU9119 analogue, cyclic MC4R antagonist of Grieco et al., J Med Chem 2002]”, the “selectivity over MC3R” value on MC4R over MC3R is reported as 200 fold. The IC50 at MC4R is 0.51 nM.

On to `Br.COc1ccc([N+](=O)[O-])cc1CSc1ccccc1C1=NCCCN1` [Compound 4], for which the “% Gain in cell surface expression” value on hMC4R mutant S58C (1 μM, 12 h) stood at 60%; on hMC4R mutant S58C (10 μM, 12 h) it was 130%; on hMC4R mutant R165Q (1 μM), 91.7%; at hMC4R mutant R165Q (10 μM) it was 508%; at hMC4R mutant N62S (1 μM), 6.25%; at hMC4R mutant N62S (10 μM), 212.5%. In addition, the “% Gain in cell surface expression” value at hMC4R mutant P299H (1 μM) is given as 11.11%; at hMC4R mutant P299H (1 μM, listed as compound shown in FIG. 6), “no effect”; on hMC4R mutant P299H (10 μM) it was 38.9%; on hMC4R mutant P299H (10 μM, listed as compound shown in FIG. 6) it was “no effect”; at hMC4R mutant R165W (1 μM, 12 h), 150%; at hMC4R mutant R165W (10 μM, 12 h), 675%.
